Test results taken from ChEMBL document CHEMBL3507680, “University of Dundee, Gates Library screen for HepG2 cell viability”.

Assay: Human HepG2 cell viability assay in 384 well format
Format: toxicity, cell-based
Set-up: dose 125 nL, time 70.5 hour; concentration not given beside the values
Conditions: HepG2 cells, read-out: Inhibition

Structure (SMILES) | cytotoxicity at 70.5 h
CCCc1cc(CNC2CCN(c3cc(C(C)C)nc(C)n3)CC2)on1 | -4.25%
CCCN1CCC(CC(=O)N2CC(C)(C)[C@@](C)(O)C2)CC1 | -2.11%
Cn1ccnc1CN1CCN(Cc2ccncc2)[C@@H]2CS(=O)(=O)C[C@@H]21 | -13.6%
CCc1ncc(CN2CCCC3(CCC(=O)N(CCC(C)C)C3)C2)cn1 (centres undefined) | 1.46%
Cc1cccc(CN(Cc2ccccc2)Cc2nccs2)n1 | -11.1%
CCc1nnsc1-c1nc(C(C)C)nn1-c1ccc2c(c1)OCO2 | -5.86%
COCC(=O)N1CCN(S(=O)(=O)c2ccccc2)[C@H]2CS(=O)(=O)C[C@H]21 | -7.41%
Cc1ccccc1C1CCN(CCNC(=O)CS(C)(=O)=O)C1 (centres undefined) | -4.32%
CC(C)c1cc(C(=O)N2C[C@H]3CC[C@@H]2CN(Cc2cscn2)C3)no1 | 15.2%
O=C(O)c1cn(CC2CCCN(c3nc4ccccc4s3)C2)nn1 (centres undefined) | 20.3%
CC(C)(O)CCc1cccc(C(=O)NCC2CN(S(C)(=O)=O)CCO2)c1 (centres undefined) | 10.1%
Cc1cccc(C(=O)N2CCCC(c3nccn3Cc3cscn3)C2)n1 (centres undefined) | -5.05%
Cc1ncccc1Oc1ncnc(N2CCC(O)(CO)CC2)c1C | -6.21%
NC1(C(=O)NCC2CCCN(Cc3cccc4nonc34)C2)CCC1 (centres undefined) | -3.66%
CC(C)=CCN1CCN(C(=O)CSc2ccccn2)[C@H]2CS(=O)(=O)C[C@H]21 | -8.43%
Cc1nc(C(C)C)sc1C(=O)NCCSc1ccccn1 | -11.3%
O=C1N(CCc2ccccc2)CCCC1(O)CNCc1ccc(F)cc1 (centres undefined) | 6.09%
CC(=O)N1C[C@H]2CNC[C@@]2(C(=O)NCCNc2ccncc2C)C1 | -0.521%
CC(C)c1cc(N2CCC3(CCN(C)C3)C2)ncn1 (centres undefined) | 3.25%
Cc1cc(C)n(CC(C)NC2CCN(Cc3cccc(O)c3)CC2)n1 (centres undefined) | -7.84%
COc1ccccc1OC1(C(=O)O)CCN(c2ncnc(C)c2C)CC1 | 17.6%
COc1cccc(CN2CCCCC2CN2CCOCC2)c1F (centres undefined) | -2.15%

Structure (SMILES) | cytotoxicity at 70.5 h
Cc1ccccc1OCC(=O)N1CCOC2(CNCCOC2)C1 (centres undefined) | -5.6%
Cc1ccccc1OC1CCN(C(=O)c2c[nH]c(=O)[nH]c2=O)CC1 | -0.618%
CCN1CC(CN(C)Cc2nc(-c3ccoc3)oc2C)CC1=O (centres undefined) | 0.925%
COCCn1cncc1CN1CCCC(C)(c2ccccc2)C1 (centres undefined) | 18%
COc1ccc(F)cc1NC(=O)NCC1(C)COC1 | 0.338%
CCC(C)N1CCC(Oc2ccc(C(=O)NCCN(C)C)cc2Cl)CC1 (centres undefined) | -5.39%
COC[C@@]12CC[C@@H](N3CCOCC3)C[C@H]1CCN(c1ncccc1F)C2 | -6.47%
Cc1cc(CN2CCN(CC3CC3)[C@@H]3CS(=O)(=O)C[C@@H]32)cc(C)c1O | -2.43%
O=c1cc(N2CCCCC2)cnn1CC(O)C(F)(F)F (centres undefined) | -8.52%
Cc1ncsc1CCN(C)Cc1ccc(CO)o1 | -5.5%
CSCCc1c(-c2ccccc2)ncn1[C@H]1C[C@@H](C(=O)O)N(C)C1 | -13.3%
CNc1ncc(CN(C)Cc2cc(O)c3cccc(Cl)c3n2)cn1 | -15.2%
CSc1ccccc1CN1C[C@H]2CC[C@@H]1CN(Cc1[nH]cnc1C)C2 | 17.6%
Cc1cc(C(=O)N2CCC3(CCC(=O)N(CC(N)=O)C3)CC2)ccc1O | -14%
CS(=O)(=O)NCC1CCN(Cc2cc3ccccc3[nH]c2=O)C1 (centres undefined) | -3.86%
O=C1CC2(CCCC2)CC(=O)N1CCn1cnnc1 | -8.05%
COCCN(CC1CCCN(C2Cc3ccccc3C2)C1)C(=O)COC (centres undefined) | -7.6%
Cc1cccc(CC(=O)N2CCCC(N(C)CCCN(C)C)C2)c1 (centres undefined) | -4.84%
COCCCNc1ncnc2c1CCN(C(=O)CC1C=CCC1)CC2 (centres undefined) | -5.04%
Cc1cccn2c(CNC(C)CCc3ccc(O)cc3)cnc12 (centres undefined) | -7.78%
CC(C)[C@H]1CN(c2ccncc2)C[C@@H]1NC(=O)C1(C#N)CCOCC1 | -8.3%
O=C(O)C1(n2ccc(-c3ccco3)n2)CCN(Cc2cccs2)CC1 | 17.7%

Structure (SMILES) | cytotoxicity at 70.5 h
O=C(c1cc(=O)[nH][nH]1)N1CCCC2(CCC(=O)N(C3CCCC3)C2)C1 (centres undefined) | -5.45%
CC(C)c1nccn1CCCNC(=O)c1ccc(-c2cn[nH]c2)nc1 | -3.19%
Cc1cccc(CN2CCN(C(=O)N(C)C)[C@@H]3CS(=O)(=O)C[C@@H]32)n1 | 2.11%
O=C1NC(C(=O)NCc2cccnc2Oc2ccccc2F)CO1 (centres undefined) | -18.5%
Cc1noc(CN(C)CC2CCCN(CCc3ccc(Cl)cc3)C2)n1 (centres undefined) | -11.4%
COCCc1noc(-c2cn(Cc3ccccc3C)nn2)n1 | -4.41%
CC(C)CC(NC(=O)c1cc(-c2cccn2C)n[nH]1)c1ncnn1C (centres undefined) | -1.67%
O=C(C1CCC1)N1C[C@@H]2CC[C@H](C1)N(S(=O)(=O)c1ccccc1)C2 | -8.37%
CC(C)NC(=O)Nc1ccc(-c2nc3c([nH]2)CCNC3)cc1 | -15.8%
CNc1nccc(-c2cn(C)nc2C)n1 | 1.94%
CCOc1cccc(CN(Cc2cnn(C)c2)CC(C)C)c1O | 7.39%
O=c1cc(N2CCCC2)cnn1Cc1noc(C2CCCO2)n1 (centres undefined) | 7.8%
CNS(=O)(=O)c1ccc(CN2CCCN(CC(C)C)CC2)cc1 | -0.0493%
COc1ccc(N2CCN(C[C@@H](C)CO)CC2=O)cc1 | -4.04%
Cc1ccc(NC(=O)[C@H]2C[C@H](C(=O)O)CN(CC3CC3)C2)cn1 | -21.8%
CCNc1ncc(C(=O)NCc2csc(-c3ncccn3)n2)cn1 | 3.46%
COc1ccc(C(=O)N2C[C@H]3CC[C@@H]2CN(C)C3)cc1Cl | 47.4%
CN(C)c1nc2c(c(N(C)C)n1)CCN(C(=O)CN1CCC(O)CC1)C2 | -7.75%
Cc1nn(CCO)cc1CN1CCCC1c1nc2c(C)cccc2[nH]1 (centres undefined) | -2.76%
O=C(c1ccc(-c2cc[nH]n2)cc1)N1CC[C@H](CO)[C@H](O)C1 | 0.543%
COc1nc(C)c(C(=O)N2CCc3[nH]nc(Cc4ccccc4)c3C2)s1 | -1.57%
COCCCN1CC2(CCC1=O)CCN(Cc1cc(C)no1)CC2 | 12.2%

Structure (SMILES) | cytotoxicity at 70.5 h
Cc1cccc(CN2C[C@@H]3CC[C@H](C2)N(Cc2c(C)noc2C)C3=O)n1 | -3.2%
CN(C)CCNc1ccc(-c2nc(COc3ccccc3)no2)cn1 | 3.62%
Cn1c(CO)nnc1CC1CCN(Cc2ccc(C#N)cc2)CC1 | -1.35%
CC1(C)CNC(=O)c2nc(C3CCCN(C(=O)C4CC4)C3)[nH]c2C1 (centres undefined) | -7.49%
Cc1ccc(C(C(=O)N(C)CCc2cn[nH]c2)N(C)C)cc1 (centres undefined) | -8.45%
CCc1nccn1CCCNC(=O)CN1CCN(c2ncccn2)CC1 | -7.13%
COC1CCCOC12CCN(C(=O)NCCc1cccs1)CC2 (centres undefined) | -0.941%
CCC(O)Cn1cc(C2=CCN(Cc3ccc(OC)cc3)CC2)cn1 (centres undefined) | -11.9%
CCCc1cc(C(=O)NCCCn2nnc3ccccc32)no1 | -6.64%
CCCc1nc(CN(CC)C(=O)c2ccc3ncsc3c2)no1 | -0.393%
CN1CC2(CCN(C(=O)c3ccc4c(=O)n(C)cnc4c3)CC2)CC1=O | -6.3%
O=C(CCCc1cn[nH]c1)N1C[C@@H](CN2CCCCCC2)[C@@H](CO)C1 | -6.07%
COc1cc(OC)nc(N2CCC3(CC2)OCCCC3O)n1 (centres undefined) | -5.5%
Cc1cnc(C(=O)N(C)Cc2nc(-c3ccccn3)no2)cn1 | 1.35%
COCc1ncc(-c2nccn2CCS(C)(=O)=O)cn1 | 27.5%
CN(C)C(=O)c1ccc2c(c1)N(C)C(CC(=O)NC(CO)CO)CO2 (centres undefined) | -7.74%
Cc1cc2nc(C(C)C)cc(N(C)CC3CCN(C(C)C)C3)n2n1 (centres undefined) | 28%
CCC(=O)Nc1cccc(OCC(=O)N[C@@H]2C[C@H]3CC[C@@H]2C3)c1 | -22.4%
CC(C)Cc1cc(CNC(=O)c2cccc3c2NCCC3)no1 | -8.61%
CC(C)C1CN(C(=O)c2cc(=O)[nH]c(=O)[nH]2)CCC(=O)N1CC1CC1 (centres undefined) | -2.3%
CCCn1ccnc1-c1nccn1CCn1cnnc1 | -6.38%
Cc1nc2c(c(NC(C)c3nnn[nH]3)n1)Cc1ccccc1OC2 (centres undefined) | -6.63%

Structure (SMILES) | cytotoxicity at 70.5 h
COCCCC1CCCCN1Cc1cnn(C)c1C1CC1 (centres undefined) | -2.6%
O=C(Cc1ccc(CO)cc1)N1CCN(CC2CC2)[C@@H]2CS(=O)(=O)C[C@@H]21 | 2.89%
CC(C)(C)N1CC(C(=O)NCc2noc(Cc3ccccc3)n2)CC1=O (centres undefined) | 21.2%
CN1CCCC(CCC(=O)NCCCn2ncc3ccccc32)C1 (centres undefined) | 25.3%
CCN(Cc1noc(C)n1)C(=O)C(c1ccccc1C)N(C)C (centres undefined) | -6.06%
COC(=O)[C@]12CNC[C@H]1CN(Cc1nc(C)c[nH]1)C2 | 8.04%
COc1cc(C(=O)N2CC(Oc3ccccc3Cl)C2)ccn1 | -3.47%
O=C1CC[C@H]2CN(Cc3ncc[nH]3)CC[C@H]2N1CC1CCNCC1 | -1.94%
CSc1ccc(CN(CCO)C(=O)CCNC(C)=O)cc1 | -14.7%
Cc1nnc(N2CC[C@@]3(O)CCNC[C@H]3C2)c2ccccc12 | -12.3%
Cc1nc2c(c(N(C)Cc3ccccc3-n3cccn3)n1)CCNCC2 | 26.5%
CCn1cc(CN2CCCCC2CCn2ccnc2C)cc1C#N (centres undefined) | -6.87%
CCC(C(=O)N(C)Cc1cc(C2CC2)[nH]n1)n1cccn1 (centres undefined) | -5.95%
COCCN(Cc1c(C)nn(C)c1C)C(=O)C1COc2ccccc2C1 (centres undefined) | -1.84%
Cn1ncc2c(N3CC(N4CCCCC4)C3)nc(-c3ccncc3)nc21 | -12.9%
CC(=O)CCC(=O)N1CCC2(CC1)N=C(CCC(C)C)NC2=O | -0.28%
CN(CCc1nc2cc(Cl)ccc2[nH]1)C(=O)c1ncn[nH]1 | -9.76%
CN(Cc1nccs1)C1CCN(c2cccc(-c3cscn3)c2)CC1 | 10.5%
CC(C)c1cc(NCC2(CO)CCCC2)ncn1 | -10.6%
Cc1ncsc1-c1ccn(CC(=O)Nc2cnn(C)n2)n1 | 45.6%
CNC(=O)CCC(=O)N1CCOC(c2ccc3cc(OC)ccc3c2)C1 (centres undefined) | -3.11%
